This note sets out measurements from US20090326029A1, “NON-CYCLIC SUBSTITUTED BENZIMIDAZOLE THIOPHENE BENZYL ETHER COMPOUNDS” (priority 2006, published 2009).

One experiment concerns the target T1, PLK1 kinase domain (Homo sapiens, UniProt P53350).
T1 construct: 6xHis (leader MKKGHHHHHHD) (N); made in house; host or cells: baculovirus infected T. ni cells
Nature of the experiment: Assay for Inhibition of PLK1 (SPA kinase assay). The experiment is classed as biochemical. The note with it: 2 nM PLK1 kinase domain, 1 μM ATP, 1 μM substrate peptide, 22° C.; read-out: PLK1 pIC50 (converted). As for the experimental part: 6× N-terminal His-tagged PLK kinase domain (amino acids 21-346 preceded by MKKGHHHHHHD) SEQ ID: No. 1. was prepared from baculovirus infected T. ni cells under polyhedrin promoter control. All procedures were performed at 4° C. Cells were lysed in 50 mM HEPES, 200 mM NaCl, 50 mM imidazole, 5% glycerol; pH 7.5. The homogenate was centrifuged at 14K rpm in a SLA-1500 rotor for 1 hr and the supernatant filtered through a 1.2 micron filter. The supernatant was loaded onto a Nickel chelating Sepharose (Amersham Pharmacia) column and washed with lysis buffer. Protein was eluted using 20%, 30% and 100% buffer B steps where buffer B was 50 mM HEPES, 200 mM NaCl, 300 mM imidazole, 5% glycerol; pH 7.5. Fractions containing PLK were determined by SDS-PAGE. Fractions containing PLK were diluted five-fold with 50 mM HEPES, 1 mM DTT, 5% glycerol; pH 7.5, then loaded on an SP Sepharose (Amersham Pharmacia) column. After washing the column with 50 mM HEPES, 1 mM DTT, 5% glycerol; pH 7.5, PLK was step eluted with 50 mM HEPES, 1 mM DTT, 500 mM NaCl; 5% glycerol; pH 7.5. PLK was concentrated using a 10 kDa molecular weight cutoff membrane and then loaded onto a Superdex 200 gel filtration (Amersham Pharmacia) column equilibrated in 25 mM HEPES, 1 mM DTT, 500 mM NaCl, 5% glycerol; pH 7.5. Fractions containing PLK were determined by SDS-PAGE. PLK was pooled, aliquoted and stored at −80° C. Samples were quality controlled using mass spectrometry, N-terminal sequencing and amino acid analysis.
All measurements were obtained under conditions where signal production increased linearly with time and enzyme. Test compounds were added to white 384-well assay plates (0.1 μL for 10 μL and some 20 μL assays, 1 μL for some 20 μL assays) at variable known concentrations in 100% DMSO. DMSO (I-5% final, as appropriate) and EDTA (65 mM in reaction) were used as controls. Reaction Mix was prepared as follows at 22° C.: • 25 mM HEPES, pH 7.2 • 15 mM MgCl2 • 1 μM ATP • 0.05 μCi/well ^33P-γ ATP (10 Ci/mMol) • 1 μM substrate peptide (Biotin-Ahx-SFNDTLDFD) SEQ ID: No. 2. • 0.15 mg/mL BSA • 1 mM DTT • 2 nM PLK1 kinase domain (added last)
Reaction Mix (10 or 20 μL) was quickly added to each well immediately following addition of enzyme via automated liquid handlers and incubated 1-1.5 h at 22° C. The 20 μL enzymatic reactions were stopped with 50 μL of stop mix (50 mM EDTA, 4.0 mg/mL Streptavidin SPA beads in Standard Dulbecco's PBS (without Mg^2+ and Ca^2+), 50 μM ATP) per well. The 10 μL reactions were stopped with 10 μL of stop mix (50 mM EDTA, 3.0 mg/mL Streptavidin-coupled SPA Imaging Beads (“LeadSeeker”) in Standard Dulbecco's PBS (without Mg^2+ and Ca^2+), 50 μM ATP) per well. Plates were sealed with clear plastic seals, spun at 500×g for 1 min or settled overnight, and counted in Packard TopCount for 30 seconds/well (regular SPA) or imaged using a Viewlux imager (LeadSeeker SPA). Signal above background (EDTA controls) was converted to percent inhibition relative to that obtained in control (DMSO-only) wells.

The next experiment has as its system HCT116. Nature of the experiment: Inhibition of Cell Proliferation (methylene blue or CellTiter-Glo). The following applies: Homo sapiens, HCT-116; HCT116 cell growth, seventy two hours post-treatment, 10% fetal bovine serum. It counts as cell-based. On the procedure:
Exponentially growing cell lines of different tumor origins, cultured in appropriate media containing 10% fetal bovine serum at 37° C. in a 5% CO2 incubator were plated at low density (less than 2000 cells/well) in 96-well plates. Twenty four hours post-plating, cells were treated with different concentrations of test compounds ranging from 10 uM to 0.04 nM. Several wells were left untreated as a control. Seventy two hours post-treatment, cell numbers were determined using different techniques; 100 μl per well of methylene blue (Sigma M9140) (0.5% in 50:50 Ethanol:water), or 50-100 ul per well of CellTiter-Glo (Promega #G7573). For methylene blue staining, stain was incubated at room temperature for 30 minutes before plates were rinsed and dye solubilized in 1% N-lauroyl sarcosine, sodium salt, (Sigma L5125, in PBS). Plates were read on a microplate reader, measuring the OD at 620 nm. For CellTiter-Glo, plates were incubated at room temperature for 15 minutes and the chemiluminescent signal was read on the Victor V or Envison 2100 reader.
Percent inhibition of cell growth was expressed as percent proliferation relative to 100% proliferation (control). Concentration of test compound that inhibited 50% of cell growth (IC50) was determined by 4 parameter fit of data using XLfit, (value of no cell control was substracted from all samples for background). The data are shown in Table 1 and Table 2 below and represent a compilation of several different experiments each performed using the general parameters outlined above, although minor variations may have been employed in some instances. In Table 1 and Table 2, +=IC50>1+M; ++=IC50 0.5-1 μM: +++=IC50<0.5 μM.
On the technique in general: Cellular ATP, detected with luciferase, serves as a proxy for viable cell number.

Structures can show the parent of a compound that is named as a salt.

T1 sequence (P53350 21-346): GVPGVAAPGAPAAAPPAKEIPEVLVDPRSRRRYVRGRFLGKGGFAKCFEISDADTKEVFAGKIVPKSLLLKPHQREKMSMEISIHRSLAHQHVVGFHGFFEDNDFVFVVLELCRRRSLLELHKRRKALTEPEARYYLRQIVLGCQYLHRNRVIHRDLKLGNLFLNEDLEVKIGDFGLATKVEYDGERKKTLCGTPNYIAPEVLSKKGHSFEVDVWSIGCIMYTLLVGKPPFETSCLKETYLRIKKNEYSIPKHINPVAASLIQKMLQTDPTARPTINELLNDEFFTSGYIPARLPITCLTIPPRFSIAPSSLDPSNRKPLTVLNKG

For `COc1cc2ncn(-c3cc(O[C@H](C)c4cc(C(=O)NCCN(C)C)ccc4Cl)c(C(N)=O)s3)c2cc1OC` [Example 1, 5-[5,6-Bis(methyloxy)-1H-benzimidazol-1-yl]-3-({(1R)-1-[2-chloro-5-({[2-(dimethylamino)ethyl]amino}carbonyl)phenyl]ethyl}oxy)-2-thiophenecarboxamide formate], the IC50 on PLK1 kinase domain was 100 to 1000 nM. With `C[C@@H](Oc1cc(-n2cnc3cc(-c4cnn(C)c4)ccc32)sc1C(N)=O)c1cccc(OCCN)c1Cl` [Example 7, 3-[((1R)-1-{3-[(2-aminoethyl)oxy]-2-chlorophenyl}ethyl)oxy]-5-[5-(1-methyl-1H-pyrazol-4-yl)-1H-benzimidazol-1-yl]-2-thiophenecarboxamide hydrochloride], the IC50 at PLK1 kinase domain was < 100 nM; with HCT116, < 500 nM. Turning to `C[C@@H](Oc1cc(-n2cnc3cc(-c4cnn(C)c4)ccc32)sc1C(N)=O)c1cccc(OCCO)c1Cl` [Example 6, 3-[((1R)-1-{2-chloro-3-[(2-hydroxyethyl)oxy]phenyl}ethyl)oxy]-5-[5-(1-methyl-1H-pyrazol-4-yl)-1H-benzimidazol-1-yl]-2-thiophenecarboxamide], the results for the IC50 at PLK1 kinase domain and in the experiment with HCT116 were < 100 nM and < 500 nM, respectively. In the case of `COc1cc2ncn(-c3cc(O[C@H](C)c4cccc(NCCO)c4Cl)c(C(N)=O)s3)c2cc1OC` [Example 2, 5-[5,6-Bis(methyloxy)-1H-benzimidazol-1-yl]-3-[((1R)-1-{2-chloro-3-[(2-hydroxyethyl)amino]phenyl}ethyl)oxy]-2-thiophenecarboxamide], the IC50 with HCT116 is < 500 nM.

Turning to `C[C@@H](Oc1cc(-n2cnc3cc(-c4cnn(C)c4)ccc32)sc1C(N)=O)c1cccc(OCCCN(C)C)c1Cl` [Example 9, 3-{[(1R)-1-(2-chloro-3-{[3-(dimethylamino)propyl]oxy}phenyl)ethyl]oxy}-5-[5-(1-methyl-1H-pyrazol-4-yl)-1H-benzimidazol-1-yl]-2-thiophenecarboxamide], the IC50 on PLK1 kinase domain is < 100 nM; in the experiment with HCT116, < 500 nM. In the same order, the values of `C[C@@H](Oc1cc(-n2cnc3cc(-c4cnn(C)c4)ccc32)sc1C(N)=O)c1cccc(OCCN(C)C)c1Cl` [Example 8, 3-{[(1R)-1-(2-chloro-3-{[2-(dimethylamino)ethyl]oxy}phenyl)ethyl]oxy}-5-[5-(1-methyl-1H-pyrazol-4-yl)-1H-benzimidazol-1-yl]-2-thiophenecarboxamide] are < 100 nM and < 500 nM. Regarding `C[C@@H](Oc1cc(-n2cnc3ccccc32)sc1C(N)=O)c1cccc(OCCN)c1Cl` [Example 4, 3-[((1R)-1-{3-[(2-Aminoethyl)oxy]-2-chlorophenyl}ethyl)oxy]-5-(1H-benzimidazol-1-yl)-2-thiophenecarboxamide], the IC50 is < 100 nM at PLK1 kinase domain and < 500 nM in the experiment with HCT116. For `C[C@@H](Oc1cc(-n2cnc3cc(-c4cnn(C)c4)ccc32)sc1C(N)=O)c1cccc(OCCCO)c1Cl` [Example 5], in that order: < 100 nM and < 500 nM.

Regarding `COc1cc2ncn(-c3cc(O[C@H](C)c4cccc(OCCN)c4Cl)c(C(N)=O)s3)c2cc1OC` [Example 3, 3-[((1R)-1-{3-[(2-aminoethyl)oxy]-2-chlorophenyl}ethyl)oxy]-5-[5,6-bis(methyloxy)-1H-benzimidazol-1-yl]-2-thiophenecarboxamide], the IC50 was < 100 nM at PLK1 kinase domain and < 500 nM in the experiment with HCT116.
